Laboratory results as given in patent US11813252B2, “Treatment for Parkinson's disease” (SUN PHARMA ADVANCED RESEARCH COMPANY LTD., priority 2016, dated 2023).

Experiments:
[1] = test system: neurodegeneration induced by MPTP (TH-positive neurons); test: MPTP animal model of Parkinson's disease, TH immunohistochemistry; format: in vivo, C57BL/6 mice; conditions: oral, 10 or 30 mg/kg once a day, 6 days before, on the day of and 7 days after MPTP; substantia nigra pars compacta
[2] = Plasma pharmacokinetics in beagle dogs; format: in vivo; conditions: dog, oral
Experimental: (§1) Measurements of ECG parameters (QT interval, QTcb interval, QTcf interval) and heart rate were carried out and recorded over a period of 2 hour prior to drug administration (baseline), and continuously up to 24 hour post-administration. Each animal received both vehicle (placebo) and three different doses of the compound of Formula I.a on different days in a Latin square design, with a washout period of a minimum of 96 hr. On a separate day, one additional oral dosing of compound of Formula I.a was performed to assess plasma concentrations of the compound of Formula I.a at different time points, to derive pharmacokinetic (PK) parameters.

hERG K+ channel = target: T1, hERG K+ channel (Homo sapiens, UniProt Q12809); test: hERG K+ channel patch clamp in HEK293 cells; format: cell-based; conditions: for Inhibition of hERG current (in words): at the concentration tested
T1 construct: expressed in transfected cells
T1 sequence (Q12809 whole entry): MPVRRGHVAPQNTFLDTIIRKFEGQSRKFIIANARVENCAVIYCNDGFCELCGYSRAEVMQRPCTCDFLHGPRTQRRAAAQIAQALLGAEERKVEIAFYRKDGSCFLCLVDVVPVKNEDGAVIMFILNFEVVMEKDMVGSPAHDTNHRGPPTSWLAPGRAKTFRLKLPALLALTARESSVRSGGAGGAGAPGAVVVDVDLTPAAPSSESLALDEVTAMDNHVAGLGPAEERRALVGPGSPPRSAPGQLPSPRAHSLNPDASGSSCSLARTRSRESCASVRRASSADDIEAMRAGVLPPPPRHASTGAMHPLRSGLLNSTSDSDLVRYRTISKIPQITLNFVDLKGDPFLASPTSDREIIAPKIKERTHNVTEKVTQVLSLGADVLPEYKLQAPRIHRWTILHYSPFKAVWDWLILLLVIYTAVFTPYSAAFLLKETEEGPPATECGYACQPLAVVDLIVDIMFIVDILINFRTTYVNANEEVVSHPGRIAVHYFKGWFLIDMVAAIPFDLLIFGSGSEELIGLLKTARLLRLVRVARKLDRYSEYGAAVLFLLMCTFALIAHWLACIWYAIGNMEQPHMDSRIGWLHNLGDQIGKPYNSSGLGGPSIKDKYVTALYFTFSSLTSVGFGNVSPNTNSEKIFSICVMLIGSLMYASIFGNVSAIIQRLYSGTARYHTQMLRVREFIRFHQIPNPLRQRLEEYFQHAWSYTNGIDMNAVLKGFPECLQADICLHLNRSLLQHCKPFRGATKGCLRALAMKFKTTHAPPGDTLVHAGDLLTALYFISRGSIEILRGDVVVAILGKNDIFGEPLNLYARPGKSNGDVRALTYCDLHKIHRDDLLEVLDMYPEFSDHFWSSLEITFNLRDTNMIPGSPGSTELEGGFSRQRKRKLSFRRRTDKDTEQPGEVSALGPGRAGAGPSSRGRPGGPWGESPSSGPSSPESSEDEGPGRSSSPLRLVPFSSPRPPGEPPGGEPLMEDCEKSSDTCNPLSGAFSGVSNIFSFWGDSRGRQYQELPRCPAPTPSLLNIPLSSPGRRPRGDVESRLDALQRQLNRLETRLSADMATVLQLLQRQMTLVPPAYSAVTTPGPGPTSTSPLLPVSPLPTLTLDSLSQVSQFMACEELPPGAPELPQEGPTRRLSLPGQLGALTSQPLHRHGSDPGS
Experimental: The in vitro effect of the compounds of Formula I.a and I.b on ionic currents in voltage-clamped human embryonic kidney cells (HEK293) that stably express the human ether-à-go-go-related gene (hERG) was examined. Two concentrations of the compounds of Formula I.a and I.b (1 and 10 μM) were tested at near physiological temperature.
Cells were transferred to the recording chamber and superfused with vehicle control solution (HEPES-buffered physiological saline solution+1% dimethylsulfoxide+1% Bovine serum albumin). Micropipette solution for whole cell patch clamp recordings was composed of: potassium aspartate, 130 mM; MgCl2, 5 mM; EGTA, 5 mM; ATP, 4 mM; HEPES, 10 mM; pH adjusted to 7.2 with 10N KOH. Micropipette solution was prepared in batches, aliquoted, stored frozen and a fresh aliquot thawed each day. The recording was performed at a temperature of 33 to 35° C. using a combination of in-line solution pre-heater, chamber heater and feedback temperature controller. Temperature was measured using a thermistor probe in the recording chamber. Micropipettes for patch clamp recording were made from glass capillary tubing using a P-97 micropipette puller (Sutter Instruments, Novato, Calif.). A commercial patch clamp amplifier was used for whole cell recordings. Before digitization, current records were low-pass filtered at one-fifth of the sampling frequency.
Cells stably expressing hERG were held at −80 mV. Onset and steady state inhibition of hERG potassium current due to the test compounds (Formula I.a and I.b) were measured using a pulse pattern with fixed amplitudes (conditioning prepulse +20 mV for 1 s; repolarizing test ramp to −80 mV (−0.5 V/s) repeated at 5 s intervals). […] was subtracted off-line digitally from the data to determine the potency of the test compounds for hERG inhibition.

[3] = Brain/plasma pharmacokinetic study in mice; format: in vivo, C57BL6 mice
Experimental: At 1, 4 & 8 hour time points post treatment, mice were anesthetized with isoflurane and a 0.4 mL of blood was withdrawn from retro-orbital plexus into eppendorf tubes containing 8 μL sodium heparin as an anticoagulant (100 IU/ml) and transferred to ice containers. Blood samples were centrifuged immediately for 7 min at 8500 rpm, 4° C. Plasma was separated in the pre-labeled eppendorf tubes and stored at −70° C. till further analysis. Immediately thereafter, the mice were sacrificed, whole brain was removed and rinsed with ice-cold phosphate buffered saline (PBS) to remove extraneous blood and blot-dried. Brain tissue samples were weighed and homogenized in 1:2 volume of PBS using a tissue homogenizer and stored in labeled vials at −70° C. until further analysis. Concentrations of the compound of Formula I.a in brain and plasma were determined using the LC-MS technique.

[4] = QT, QTc intervals and heart rate in conscious telemetered beagle dogs; format: in vivo; conditions: for Emesis: beagle dogs
Experimental: Compound of Formula I.a was administered via peroral (p.o.) route at three dose levels: 5, 15, and 30 mg/kg in conscious telemetered male and female beagle dogs.
as §1
Data of ECG parameters (QT interval, QTcb interval, QTcf interval,) and heart rate were statistically compared as follows: Data of the placebo group at 0.5, 1, 1.5, 2, 3, 4, 5, 6, 8, 12, and 24 hour time points were compared with baseline data of the same group. Data of different groups treated with the compound of Formula I.a were compared with the corresponding data of the placebo group.

[5] = QT, QTc intervals and heart rate in anesthetized guinea pig; format: in vivo, Dunkin-Hartley guinea pigs; conditions: 1 mg/kg intravenous infusion over 10 min
Experimental: Male Dunkin-Hartley guinea pigs of body weight range 300-400 g were anaesthetized by intraperitoneal injection of urethane (1.5 g/kg). A tracheotomy was performed and animal was allowed to breath spontaneously throughout the experiment. The left jugular vein was catheterized using polyethylene catheter filled with heparinized saline solution (100 IU/mL) for drug administration. Electrodes were placed in lead II position and baseline ECG was recorded.
For different animals, according to body weight, doses of the compound of Formula I.b were weighed and prepared in 0.5 mL of DMSO and administered via a slow intravenous infusion administered over a period of 10 min. ECGs were recorded during and after completion of infusion up to 0.5 hr. QT and RR intervals were measured, using PowerLab 4SP® software. The data were analyzed at 1, 5, and 10 min during infusion and 5, 10, 15 and 30 min after infusion taking mean of 9 beats.

Abl (human) = Abl (human) (Homo sapiens, UniProt P00519); test: Abl kinase inhibition; format: biochemical; conditions: read-out: Comparative potencies of tyrosine kinase inhibitors in c-Abl IC50
Abl (human), sequence (P00519 whole entry): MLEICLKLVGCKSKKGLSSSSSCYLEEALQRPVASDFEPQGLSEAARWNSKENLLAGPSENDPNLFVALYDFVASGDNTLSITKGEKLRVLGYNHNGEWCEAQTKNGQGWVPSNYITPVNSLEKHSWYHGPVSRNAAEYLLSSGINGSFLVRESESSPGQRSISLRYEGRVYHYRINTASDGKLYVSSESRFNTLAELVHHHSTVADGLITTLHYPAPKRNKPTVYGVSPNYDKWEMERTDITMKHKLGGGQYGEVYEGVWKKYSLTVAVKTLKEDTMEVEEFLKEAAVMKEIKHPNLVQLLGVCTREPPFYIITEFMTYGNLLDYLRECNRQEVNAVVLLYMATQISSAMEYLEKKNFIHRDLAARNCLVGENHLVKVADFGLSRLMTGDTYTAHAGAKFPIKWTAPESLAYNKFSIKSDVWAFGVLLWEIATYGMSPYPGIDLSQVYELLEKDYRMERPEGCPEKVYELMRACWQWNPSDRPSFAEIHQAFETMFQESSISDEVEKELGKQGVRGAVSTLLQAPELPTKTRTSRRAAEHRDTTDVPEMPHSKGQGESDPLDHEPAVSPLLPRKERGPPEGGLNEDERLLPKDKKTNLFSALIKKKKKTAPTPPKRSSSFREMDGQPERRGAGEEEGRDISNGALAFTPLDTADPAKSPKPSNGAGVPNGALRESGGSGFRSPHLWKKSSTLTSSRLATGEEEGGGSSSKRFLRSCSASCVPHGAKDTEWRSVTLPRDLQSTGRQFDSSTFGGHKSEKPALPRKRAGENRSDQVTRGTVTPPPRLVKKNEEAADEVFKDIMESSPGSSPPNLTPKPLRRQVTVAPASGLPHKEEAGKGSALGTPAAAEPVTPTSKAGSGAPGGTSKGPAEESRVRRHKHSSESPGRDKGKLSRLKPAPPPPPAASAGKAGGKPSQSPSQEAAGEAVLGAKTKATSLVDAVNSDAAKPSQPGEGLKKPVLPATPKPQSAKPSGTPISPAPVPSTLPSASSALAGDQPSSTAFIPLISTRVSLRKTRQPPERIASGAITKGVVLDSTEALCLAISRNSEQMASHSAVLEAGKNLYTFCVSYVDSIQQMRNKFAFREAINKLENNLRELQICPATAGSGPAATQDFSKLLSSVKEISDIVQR
Experimental: [specific activity approx. 500 cpm/pmol, concentration as required). The reaction is initiated by the addition of the MgATP mix. After incubation for 40 minutes at room temperature, the reaction is stopped by the addition of 5 μL of a 3% phosphoric acid solution. 10 μL of the reaction is then spotted onto a P30 filtermat and washed three times for 5 minutes in 75 mM phosphoric acid and once in methanol prior to drying and scintillation counting.

[6] = human, HEK293 cells stably expressing hERG, 33 to 35° C., n=3, read-out: Mean percent inhibition of hERG current

Cc1ccc(C(=O)NNC(=O)c2c(C)cccc2Cl)cc1C#Cc1cnc2ccccc2c1 [Compound I.a, N′-(2-Chloro-6-methylbenzoyl)-4-methyl-3-[2-(3-quinolyl)ethynyl]-benzohydrazide]
Prevention of neurodegeneration induced by MPTP (TH-positive neurons, percentage area, integrated density) [1]: significantly prevented the neurodegeneration induced by MPTP | AUC(0-inf) ([2]; 5 mg/kg): 1920 to 4820 ng·h/mL | Cmax ([2]; 5 mg/kg): 1220 to 2030 ng/mL | AUC(0-inf) ([2]; 15 mg/kg): 6780 to 12800 ng·h/mL | Cmax ([2]; 15 mg/kg): 2720 to 5320 ng/mL | AUC(0-inf) ([2]; 30 mg/kg): 25900 to 46700 ng·h/mL | Cmax ([2]; 30 mg/kg): 9820 to 9970 ng/mL | Inhibition of hERG current (in words) (hERG K+ channel): did not show any significant inhibition of hERG current | inhibition at 1 µM (hERG K+ channel; [6]): 2.1 ± 0.4% | inhibition at 10 µM (hERG K+ channel; human, HEK293 cells stably expressing hERG, 10 μM, 33 to 35° C., n=3, read-out: Mean percent inhibition of hERG current): 9.7 ± 0.4% | Brain to plasma ratio as compared to nilotinib or dasatinib ([3]; oral 30 mg/kg): significantly higher | Emesis ([4]; p.o., 30 mg/kg, at 14 min following dosing): Emesis occurred in two animals | Emesis ([4]; p.o., 5 and 15 mg/kg): No emesis was observed | Change in ECG morphology ([4]; conscious beagle dogs, any dose level): no change in ECG morphology | Heart rate ([4]; conscious beagle dogs, p.o., 5 and 15 mg/kg): remained unchanged | Effect on QT, QTcb, QTcf durations compared with placebo ([4]; conscious beagle dogs, p.o., 5 and 15 mg/kg, up to 24 hour): no effects | Effect on cardiovascular functions ([4]; conscious beagle dogs, single oral administration up to 15 mg/kg): no effect on cardiovascular functions

Cc1ccc(C(=O)NNC(=O)c2c(C)cccc2Cl)cc1C#Cc1ccc(NC(=O)C2CC2)nc1 [Compound I.b, Cyclopropanecarboxylic acid (5-{5-[N′-(2-chloro-6-methylbenzoyl)hydrazinecarbonyl]-2-methyl-phenylethynyl}-pyridin-2-yl)amide]
Prevention of neurodegeneration induced by MPTP (TH-positive neurons, percentage area, integrated density) [1]: significantly prevented the neurodegeneration induced by MPTP | Inhibition of hERG current (in words) (hERG K+ channel): did not show any significant inhibition of hERG current | inhibition at 0.3 µM (hERG K+ channel; human, HEK293 cells stably expressing hERG, 0.3 μM, 33 to 35° C., n=3, read-out: Mean percent inhibition of hERG current): 5.6% | inhibition at 1 µM (hERG K+ channel; [6]): 12.9% | inhibition at 3 µM (hERG K+ channel; human, HEK293 cells stably expressing hERG, 3 μM, 33 to 35° C., n=3, read-out: Mean percent inhibition of hERG current): 25% | Change in QT intervals [5]: no change in QT intervals | IC50 (Abl (human)): 0.6 nM

Cc1nc(Nc2ncc(C(=O)Nc3c(C)cccc3Cl)s2)cc(N2CCN(CCO)CC2)n1 [Dasatinib, dasatinib, reference compound]
Plasma conc. ([3]; oral, I.a 30 mg/kg, nilotinib 100 mg/kg, dasatinib 30 mg/kg, 8 hr): BQL
